# Measured values taken from PubChem BioAssay (NCI).
# “And” between values parts separate entries of the source, which are not always exact repeats. Equal values may be shown once.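 Cells were grown in 96-well plates and exposed to each compound for 48 hours at five concentrations; endpoints were interpolated linearly between bracketing concentrations, or set to the highest concentration if not reached. GI50 is the concentration that inhibits growth by half. The concentration for full growth arrest is given as TGI.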
# Tests used:
# Test in all cases: NCI tumour cell line growth inhibition, 48 h
# [1] = tested on: DU-145 prostate
# [2] = tested on: OVCAR-3 ovarian
# [3] = tested on: NCI-H23 lung
# [4] = tested on: BT-549 breast
# [5] = tested on: MOLT-4 leukemia
# [6] = tested on: HCT-116 colon
# [7] = tested on: NCI/ADR-RES ovarian
# [8] = tested on: SR leukemia
# [9] = tested on: ACHN renal
# [10] = tested on: KM12 colon
Structure (SMILES),GI50 [1],TGI [1],GI50 [2],TGI [2],GI50 [3],TGI [3],GI50 [4],TGI [4],GI50 [5],GI50 [6],TGI [6],GI50 [7],TGI [7],GI50 [8],TGI [8],GI50 [9],TGI [9],GI50 [10],TGI [10],TGI [5]
C[As](C)SCC(COC(=O)C(Cl)c1ccccc1)OC(=O)C(Cl)c1ccccc1 (centres undefined),1.24 µM,16.9 µM,0.179 µM,0.474 µM,0.719 µM,14.6 µM,2.68 µM,14.3 µM,0.49 µM,0.439 µM,2.67 µM,2.76 µM,16.8 µM,1.41 µM,5.84 µM,1.36 µM,11.4 µM,2.24 µM,13.5 µM,
CC(=O)C1=C(O)C=C2Oc3c(C(=O)/C=C/c4c(Cl)cccc4Cl)c(O)c(C)c(O)c3[C@]2(C)C1=O,0.966 µM,6.31 µM,1.12 µM,4.22 µM,1.23 µM,5.82 µM,1.43 µM,5.28 µM,0.666 µM,0.536 µM,2.7 µM,0.786 µM,5.21 µM,1.52 µM,7.7 µM,1.64 µM,8.07 µM,1.15 µM,3.99 µM,8.57 µM
COc1cc(-c2cc(O)c(-c3ccc4ccccc4n3)c(=O)[nH]2)cc(OC)c1OC,,> 85.6 µM,,> 48.9 µM,,> 95.5 µM,,> 100 µM,,,62.2 µM,,> 100 µM,,20.9 µM,,> 89.8 µM,,> 100 µM,50.9 µM
O=C(c1ccccc1)C(CN1CCCCC1)c1ccccc1 (centres undefined),0.681 µM,2.05 µM,1.78 µM,3.25 µM,1.65 µM,3.78 µM,1.6 µM,3.19 µM,1.96 µM,1.13 µM,2.46 µM,1.27 µM,2.9 µM,0.539 µM,4.26 µM,0.941 µM,2.13 µM,3.75 µM,13.8 µM,5.09 µM
CC(C)=CCC[C@](C)(O)[C@H]1CC[C@]2(C)[C@@H]1CC[C@@H]1[C@@]3(C)CC/C(=N/O)C(C)(C)[C@@H]3CC[C@]12C,13.8 µM,> 100 µM,10.6 µM,39.2 µM,8.68 µM,41.7 µM,27.4 µM,> 100 µM,10.1 µM,4.13 µM,27.2 µM,18.9 µM,> 100 µM,7.65 µM,49.4 µM,11.6 µM,35.7 µM,12.5 µM,> 100 µM,> 100 µM
Cc1nc(-c2cn3c(n2)-c2ccc(-c4cnn(C(C)(C)C(N)=O)c4)cc2OCC3)n(C(C)C)n1,1.72 µM and 2.15 µM,> 100 µM,0.876 µM and 0.582 µM,16.6 µM and > 10 µM,13.8 µM and > 5.49 µM,> 100 µM,0.633 µM and 0.594 µM,17.4 µM and > 10 µM,0.136 µM and 0.282 µM,1.2 µM and 0.399 µM,23.4 µM and > 10 µM,8.25 µM and > 7.21 µM,> 83.1 µM,4.97 µM and 8.69 µM,26.1 µM and > 10 µM,0.647 µM and 1.33 µM,> 100 µM,3.48 µM and 3 µM,17.2 µM and > 10 µM,22.8 µM and > 10 µM
COc1c2ccoc2c(OC)c2oc(=O)ccc12,,> 100 µM,,> 100 µM,,> 100 µM,,> 100 µM,,,> 100 µM,,> 100 µM,,> 100 µM,,> 100 µM,,> 100 µM,> 100 µM
